Laboratory results reported in ChEMBL document CHEMBL2034929, “A specific molecular beacon probe for the detection of human prostate cancer cells” (Bioorg Med Chem Lett, 2012).

Experiments:
[1] = Drug metabolism in human LNCAP cells at 10 uM after 26 hrs by UV-VIS spectrophotometry; type: ADME, cell-based; settings: read-out: Drug metabolism
[2] = Drug metabolism in human RWPE1 cells at 10 uM after 26 hrs by UV-VIS spectrophotometry; type: ADME, cell-based, RWPE-1; settings: read-out: Drug metabolism
[3] = Drug metabolism in 0.10 M tris-maleate buffer at pH 8 assessed as increase in fluorescence at 10 uM after 5 hrs by UV-VIS spectrophotometry in presence of porcine liver carboxylesterase relative to control; type: physicochemical; settings: pig, pH 8, 5 h
[4] = Drug metabolism in 0.10 M tris-maleate buffer at pH 8 assessed as formation of N-[4-[(1E)-2-[4-(dimethylamino)phenyl]diazenyl]benzoyl]-glycine by mass spectrometry in presence of porcine liver carboxylesterase; type: physicochemical; settings: pig
LNCaP [5] = assay: Drug metabolism in human LNCAP cell lysates at 10 uM after 26 hrs by fluorescence analysis relative to human RWPE1 cells; type: ADME, cell-based, Lysate
LNCaP [6] = assay: Drug metabolism in human LNCAP cell lysates at 10 uM after 10 days by fluorescence analysis; type: ADME, cell-based, Lysate; settings: 240 h
LNCaP [7] = assay: Drug metabolism in human LNCAP cells at 10 uM after 30 mins by fluorescence microscopy; type: ADME, cell-based; settings: 0.5 h
[8] = Drug metabolism in human RWPE1 cells at 10 uM after 30 mins by fluorescence microscopy; type: ADME, cell-based; settings: rwpe-1, 0.5 h
[9] = Drug metabolism in 0.10 M tris-maleate buffer at pH 8 assessed as formation of 2-[3-[[(3'6'-Dihydroxy-3-oxospiro[isobenzofuran-1(3H), 9'-[9H]xanthen]-6-yl)carbonyl]amino]-1-propyn-1-yl]-benzenemethanol by mass spectrometry in presence of porcine liver carboxylesterase; type: physicochemical; settings: pig
LNCaP [10] = assay: Drug metabolism in human LNCAP cell lysates at 10 uM after 26 hrs by fluorescence analysis relative to untreated human RWPE1 cells; type: ADME, cell-based, Lysate
LNCaP [11] = assay: Drug metabolism in human LNCAP cell lysates assessed as formation of N-[4-[(1E)-2-[4-(dimethylamino)phenyl]diazenyl]benzoyl]-glycine; type: ADME, cell-based, Lysate
LNCaP [12] = assay: Drug metabolism in human LNCAP cell lysates assessed as formation of 2-[3-[[(3'6'-Dihydroxy-3-oxospiro[isobenzofuran-1(3H), 9'-[9H]xanthen]-6-yl)carbonyl]amino]-1-propyn-1-yl]-benzenemethanol; type: ADME, cell-based, Lysate
LNCaP [13] = assay: Drug metabolism in human LNCAP cell lysates at 10 uM after 26 hrs by UV-VIS spectrophotometry relative to human RWPE1 cells; type: ADME, cell-based, Lysate

Question: Which results are given for `CN(C)c1ccc(/N=N/c2ccc(C(=O)NCC(=O)OCc3ccccc3C#CCNC(=O)c3ccc4c(c3)C3(OC4=O)c4ccc(O)cc4Oc4cc(O)ccc43)cc2)cc1`?
Answer: metabolised at 26 h, 10 µM [1]: 29%; metabolised at 26 h, 10 µM [2]: 10%; fold change (FC) [3]: 23; Drug metabolism [4]: Active; fold change (FC) (LNCaP [5]): 3.8; Drug metabolism (LNCaP [6]): Active; Drug metabolism (LNCaP [7]): Active; Drug metabolism [8]: Not Active; Drug metabolism [9]: Active; fold change (FC) (LNCaP [10]): 30.8; Drug metabolism (LNCaP [11]): Active; Drug metabolism (LNCaP [12]): Active; fold change (FC) (LNCaP [13]): 2.9
